Assay: molar heat capacity at constant pressure
Conditions: 101.33 kPa, Crystal

CCn1cc[n+](C)c1.[Br-] [1-ethyl-3-methylimidazolium bromide]
Small (less than 1 g) adiabatic calorimetry
Conditions | molar heat capacity at constant pressure [J/K/mol]
5 K | 0.322
10 K | 3.336
15 K | 9.171
20 K | 16.81
25 K | 25
30 K | 33.08
35 K | 40.68
40 K | 47.53
45 K | 53.77
50 K | 59.49
60 K | 69.57
70 K | 78.03
80 K | 85.47
80.24 K | 85.68
83.06 K | 87.67
85.79 K | 89.36
88.55 K | 91.21
90 K | 92.12
91.34 K | 93.01
94.15 K | 94.8
96.98 K | 96.52
99.83 K | 98.18
100 K | 98.11
102.69 K | 99.88
105.57 K | 101.51
108.46 K | 103.1
110 K | 103.8
111.37 K | 104.69
114.29 K | 106.29
117.22 K | 107.83
120 K | 109.1
120.16 K | 109.35
123.11 K | 110.89
126.08 K | 112.42
129.06 K | 113.89

Conditions | molar heat capacity at constant pressure [J/K/mol]
5.194 K | 0.3611
5.579 K | 0.4605
5.885 K | 0.5503
6.228 K | 0.6668
6.606 K | 0.8178
6.985 K | 0.9897
7.365 K | 1.183
7.747 K | 1.406
8.13 K | 1.655
8.515 K | 1.937
8.9 K | 2.249
9.286 K | 2.597
9.673 K | 2.979
10.06 K | 3.401
10.55 K | 3.999
11.14 K | 4.807
11.73 K | 5.74
12.32 K | 6.81
12.91 K | 7.996
13.54 K | 8.107
14.21 K | 8.109
14.85 K | 8.978
15.58 K | 10.01
16.41 K | 11.22
17.25 K | 12.49
18.08 K | 13.77
18.92 K | 15.08
19.75 K | 16.41
20.88 K | 18.28
22.31 K | 20.62
23.74 K | 22.98
25.17 K | 25.34
26.6 K | 27.65
28.05 K | 30.01
29.5 K | 32.33
30.94 K | 34.65
32.4 K | 36.88
33.85 K | 39.07
35.31 K | 41.18
36.76 K | 43.24
38.22 K | 45.23
39.68 K | 47.2
41.38 K | 49.4
43.34 K | 51.87
45.31 K | 54.3
47.28 K | 56.63
49.24 K | 58.85
51.21 K | 60.97
53.18 K | 63
55.14 K | 65
57.11 K | 66.93
59.08 K | 68.82
61.05 K | 70.7
63.03 K | 72.54
65 K | 74.25
66.98 K | 75.86
68.96 K | 77.42
70.95 K | 78.97
72.93 K | 80.48
74.92 K | 82.06
76.91 K | 83.6
78.9 K | 85.15
80.9 K | 86.6
82.91 K | 87.82

Source: the NIST ThermoML archive (doi:10.1016/j.jct.2006.05.008)
